Reference: patent publication US8710252B2, “Hepodxilin analog enantiomers” (priority 2006, dated 2014)
Entries after “also recorded” stand apart in the source; their conditions may differ.

Assays:
[1] = test system: washed human platelets; assay: I-BOP evoked human platelet aggregation in vitro with washed platelets; format: cell-based; conditions: washed human platelets, 5 ng I-BOP; compounds are methyl esters; read-out: IC50, inhibition of I-BOP evoked human platelet aggregation
Procedure: Washed human platelets were prepared as previously described (Pace-Asciak et al., 2002). The aggregation of platelets was carried out in a conventional 4-well aggregometer with stirring of the suspension maintained at 37° C. The platelet suspension was caused to aggregate with a thromboxane stable analog, I-BOP. The isolated enantiomer compounds and their respective racemates, PBT-3 and PBT-4, were added at various concentrations to cuvettes containing 375×10^6 platelets/ml, 1 min prior to the addition of 5 ng I-BOP (Cayman Chemicals, Ann Arbor, Mich.). Aggregation was monitored for an additional 5 min.

[2] = test system: human leukemic K562 cells; assay: Inhibition of 3H-methyl thymidine incorporation (cell proliferation) in K562 cells; format: cell-based; conditions: 6 h treatment; compounds are methyl esters
Procedure: The human leukemic K562 cell line was established as previously reported (Qiao et al., 2003). Cells were maintained as suspension cultures in RPMI 1640 medium supplemented with 100 1.1/ml penicillin G, 100 μg/ml streptomycin, 10% (v/v) […] in a humidified atmosphere of 5% CO2 at 37° C. Cell viability was assessed by the exclusion of Trypan blue. Incorporation of ^3H-methyl thymidine into cell DNA was used as an assay for cell proliferation. Cells ([…]) were starved for 12 h, and were subsequently treated with the test compounds. Compounds A, B, C and D were made up at various concentrations in DMSO ([…] A, B, C and D. Concentrations were doubled for racemates PBT-3 and PBT-4) and 1 of these solutions was added/ml volume of cells. Cells were suspended in RPMI 1640 medium. At 6 h post-treatment at 37° C. the cells were fixed and denatured essentially as described in Qiao et al. (2003), harvested and passed through Whatman GF/C glass filters. The filters were washed and counted for radioactivity.

[3] = test system: Caspase-3 cleavage in K562 cells; assay: Caspase-3 cleavage in K562 cells, Western blot; format: cell-based, human; conditions: 10 uM, 6 h, FIG. 7
Procedure: Cell culture: Human leukemia K562 cells, obtained from ATCC (American Type Culture Collection), were maintained in RPMI 1640 medium containing 100 units/ml penicillin G, 100 μg/ml streptomycin, 10% (v/v) fetal calf serum in a humidified atmosphere with 5% CO2 at 37° C. The ability of the cells to exclude trypan Blue dye was used to assess cell viability.
Cell treatment: K562 cells were stored in 0.5% FBS for 15 min before the experiment. The cells, 6×10^5, were treated with DMSO as vehicle, or with PBT-3, PBT-4, or compounds A, B, C and D at 10 uM/dish (8 ml). Gleevec™ (STI) was used at 5 μM/dish. All experiments were without FBS and treatment lasted 6 h at 37° C. Treatment was terminated by washing the cells with ice-cold PBS buffer by centrifugation at 500×g for 5 min. Cells were lysed in buffer containing 20 mM Tris-HCl buffer, pH 7.4, 150 NaCl, 1 mM EDTA, 1 mM EGTA, 1% Triton X-100 2.5 mM sodium pyrophosphate, 1 mM beta-glycerophosphate, 1 mM sodium orthovanadate, 1 mM PMSF and 1 μM leupeptin/1 μM Aprotinin/1 μM pepstain A, on ice for 30 min. The lysates were clarified by centrifugation at 15,000×g for 15 min at 4° C. Lysates were subjected to protein assay (BCA, Pierce) and kept at −80° C.
Western blot: Thirty micrograms of protein from each sample were taken, and SDS-PAGE sample loading buffer was added. The mixture was boiled for 5 min. After centrifugation, the samples were loaded onto 15% SDS-PAGE gel and the gel was run (BioRad Protein II) for 2-3 h at 20 mA. The protein was transferred to a Trans-blot Nitrocellulose membrane (Millipore). Protein bands on the membranes were checked visually with Ponceau S-staining to ensure equivalent protein load/transfer comparing different samples. Membranes were blocked with 5% non-fat dry milk in PBS containing 0.5% Tween-20 for 1 h at room temperature, and then incubated with 1:1000 dilution of anti-caspase-3 antibody (BD Transduction Laboratories, Mississauga, Canada) overnight at 4° C. Secondary antibody of horseradish peroxidase anti-mouse antibody was used at 1:2000 dilution. Bound antibodies were detected by using enhanced chemilluminescence (ECL kit, Amersham Pharmacia Biotech) and the membranes were exposed to Hyper film for ECL detection. The same membrane was stripped by placing in buffer containing 62.5 mM Tris-HCl, pH 6.8/2% SDS/100 mM beta-mercaptoethanol at 50° C. for 30 min. The membrane was washed 3 times with PBS containing 0.5% Tween-20. The membrane was blocked by PBS buffer containing 0.5% Tween-20 and 5% skim milk. The anti-tubulin antibody (Santa Cruz, Calif.) was diluted 1:1000 and membrane analyzed by ECL as described above.

[4] = molecular target: T1, Ga14-DBD-PPAR gamma-LBD fusion protein (Homo sapiens, UniProt P37231); assay: PPAR gamma transactivation assay (Gal4-PPAR gamma LBD / UASx4-TK-luc reporter); format: cell-based
T1 construct: expressed in transfected cells; host or cells: mouse embryonic fibroblasts (MEFs) or ME3 cells
T1 sequence (P37231 238-503 limits assumed): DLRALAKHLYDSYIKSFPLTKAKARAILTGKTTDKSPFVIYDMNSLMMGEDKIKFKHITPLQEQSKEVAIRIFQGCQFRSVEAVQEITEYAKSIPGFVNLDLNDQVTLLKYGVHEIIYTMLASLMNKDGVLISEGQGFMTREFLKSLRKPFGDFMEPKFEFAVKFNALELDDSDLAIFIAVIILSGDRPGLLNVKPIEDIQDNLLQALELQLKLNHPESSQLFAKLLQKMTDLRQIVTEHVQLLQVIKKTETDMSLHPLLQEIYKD
Source text: The UASx4-TK-luc reporter construct (where UAS refers to “upstream activator sequence”) contains four Ga14-responsive elements. The plasmid Ga14-PPAR gammaLBD encodes a Ga14-DBD-PPAR gamma-LBD fusion protein (i.e. the DNA-binding domain, DBD, of Ga14 fused to the ligand-binding domain, LBD, of PPAR gamma) capable of transactivating the UASx4-TK-luc reporter plasmid by binding to the UAS. The CMV-beta-galactosidase plasmid (where CMV is cytomegalovirus) was used for normalization of experimental values.
The cells were replated, typically in 24 well plates, so that at the time of transfection the cells were 50-70% confluent.
Briefly, per well in a 24 well plate, UASx4TKIuc (0.2 microg) Ga14-PPAR gammaLBD (or pM-hPPAR gamma-LBD; 0.1 microg) and CMV-beta-galactosidase (0.05 microg) in 30 μL DMEM (free of serum and antibiotics) was mixed with 30 microL DMEM (free of serum and antibiotics) containing 1 microL metafectenein. The mixture was incubated at room temperature for 20 min to allow formation of nucleic acid-lipid complexes and then approximately 60 micros was added to each well containing the 50-70% confluent cells. […] Cells were harvested after 12-24 hours and luciferase and beta-galactosidase activities were measured according to standard protocols.
Each experiment was carried out with triplicate samples with 0.1, 1 or 10 microM racemate or purified enantiomer.

Row | SMILES | IC50 [1] [nM] | IC50 [2] [nM] | Cleavage of caspase-3 [3] | PPAR gamma transactivation, result in words [4] | PPAR Activation as % of positive control (Avandia) ([4]; Experiment 1, 0.1 microM) | PPAR Activation as % of positive control (Avandia) ([4]; Experiment 1, 1 microM) | PPAR Activation as % of positive control (Avandia) ([4]; Experiment 1, 10 microM) | PPAR Activation as % of positive control (Avandia) ([4]; Experiment 2, 0.1 microM) | PPAR Activation as % of positive control (Avandia) ([4]; Experiment 2, 1 microM) | PPAR Activation as % of positive control (Avandia) ([4]; Experiment 2, 10 microM) | PPAR Activation as % of positive control (Avandia) ([4]; Experiment 3, 0.1 microM) | PPAR Activation as % of positive control (Avandia) ([4]; Experiment 3, 1 microM) | PPAR Activation as % of positive control (Avandia) ([4]; Experiment 3, 10 microM) | PPAR Activation as % of positive control (Avandia) ([4]; 10 microM racemate, Table 3)
1 | CCCCC/C=C\CC1CC1C(O)/C=C\C/C=C\CCCC(=O)OC (stereo not drawn) [Compound D, 10S-hydroxy-11S,12S-cyclopropyl-eicosa-5Z,8Z,14Z-trienoic acid methyl ester] | 82 ± 18 | 5200 | increased cleavage of caspase-3 | more effectively than Compound C; also recorded: improved PPAR gamma transactivating activity over Compound C; also recorded: higher fold PPAR gamma transactivation than compound C | 14 +/− 3 % of positive control (Avandia) | 17 +/− 3 % of positive control (Avandia) | 69 +/− 15 % of positive control (Avandia) | 4 +/− 1 % of positive control (Avandia) | 5 +/− 1 % of positive control (Avandia) | 18 +/− 1 % of positive control (Avandia) | 7 +/− 2 % of positive control (Avandia) | 8 +/− 1 % of positive control (Avandia) | 33 +/− 7 % of positive control (Avandia) | 
2 | CCCCC/C=C\CC1CC1C(O)/C=C\C/C=C\CCCC(=O)OC (centres unmarked) [PBT-3, 10-hydroxy-11,12-cyclopropyl-eicosa-5Z,8Z,14Z-trienoic acid methyl ester, reference compound] | 54 ± 9 | 4600 | increased cleavage of caspase-3 |  | 11 +/− 2 % of positive control (Avandia) | 15 +/− 2 % of positive control (Avandia) | 42 +/− 8 % of positive control (Avandia) | 4 +/− 1 % of positive control (Avandia) | 8 +/− 1 % of positive control (Avandia) | 41 +/− 5 % of positive control (Avandia) | 8 +/− 2 % of positive control (Avandia) | 18 +/− 4 % of positive control (Avandia) | 32 +/− 4 % of positive control (Avandia) | 18 +/− 1 % of positive control (Avandia)
